Laboratory results from publication PMC7413516, “Antidepressant-like activity and safety profile evaluation of 1H-imidazo[2,1-f]purine-2,4(3H,8H)-dione derivatives as 5-HT1A receptor partial agonists” (PLoS ONE, 2020).
Read-outs that look alike come from different tables or passages of the source.

Experiment: Pharmacokinetic study in mice, plasma and brain structures, LC/MS/MS
Assay type: in vivo, Swiss albino mice
Details: Swiss albino, mouse, ip, 0.625 mg/kg i.p.
Description: Blood samples from the Swiss albino mice were collected at 0 (pre-dose), 5, 15, 30, 60, 120, 240 and 480 min after a compound administration. The blood samples and brain structures were collected under general anesthesia induced by i.p. injection of 50 mg/kg ketamine plus 8 mg/kg xylazine. The blood samples were taken into heparinized tubes, immediately centrifuged at 1000 × g for 10 min, and plasma was collected. The plasma samples and brain structures were immediately frozen at -30°C and -80°C, respectively.
The plasma and tissue sample pretreatment procedure involved acetonitrile precipitation. A 5 μL aliquot of the IS working solution (100 ng/mL) was added to 50 μL of the collected mouse plasma sample, which was then vortex-mixed for 10 seconds. Thereafter, 200 μL of acetonitrile was added, vortexed during 20 min, and then centrifuged (1000 × g, 10 min). The supernatant (100 μL) was then transferred to insert placed in an autosampler vial, and a 10 μL volume of this was injected onto the HPLC column. Tissue samples were thawed before use, and whole hippocampus, striatum and frontal cortex were weighted and placed in a glass mortar and pestle tissue grinder and homogenized with an appropriate amount of phosphate buffer (pH 7.4) in 1:5 ratio. Afterward, 50 μL of tissue homogenates were transferred to new Eppendorf tubes and spiked with 5 μL of the internal standard working solution. All samples were stored on ice during the preparation process. This was followed by procedures like those described above.
The LC/ESI-MS/MS experiments were performed on an Applied Biosystems/MDS Sciex (Concord, Ontario, Canada) API 2000 triple quadrupole mass spectrometer equipped with an electrospray (ESI) ionization interface. This instrument was coupled to an Agilent 1100 (Agilent Technologies, Waldbronn, Germany) LC system. Data acquisition and processing were accomplished using Sciex Analyst 1.4.2 data collection and integration software.
An XBridge C18 (2.1 x 30 mm, 3.5 μm) analytical column (Waters, Milford, Massachusetts, USA) was used for compound separation. The temperatures of the column thermostat and the autosampler were set at 25°C and 10°C, respectively. The mobile phase consisted of a mixture of acetonitrile with addition of 0.1% formic acid (solvent A) and water with addition of 0.1% formic acid (solvent B) and was set at a flow rate of 0.6 mL/min. Starting amount of solvent A is 10%, isocratic elution from 0 to 3 min, and then gradient up to 90% of solvent A, and maintained to 10 min, and then gradient down to 10% of solvent A, and maintained to 15 min.
The ion source parameters were as follows: ion spray voltage: 5500 V; nebulizer gas (gas 1): 20 psi; turbo gas (gas 2): 25 psi; temperature of the heated nebulizer: 400°C; curtain gas: 40 psi; collision gas: 6 psi. Mass spectra were acquired by SRM with precursor/predominant product ion transitions for each analyte. The mass spectral Q1→Q3 transitions monitored for AZ-853, AZ-861 and for IS (nebivolol), were m/z 453.9→235.1; 504.3→285.1 and 406.2→151.1, respectively. The peak widths of precursor and product ions were set to 0.7 full width half-height. Quantification was done via peak area ratio.
Pharmacokinetic parameters were calculated by a non-compartmental approach from the average concentration values, using Phoenix WinNonlin software (Certara, Princeton, NJ 08540 USA). First order elimination rate constant (λz) was calculated by linear regression of time versus log concentration. Next, the area under the mean serum and tissue concentration versus time curve (AUC0→t) was estimated using the log-linear trapezoidal rule (1), where Ci is the plasma concentration measured at t1.
AUC0→t=∑i=1n((Ci+Ci+1)/2)∙(ti+1−ti). (1)
Area under the first-moment curve (AUMC0→t) was estimated by calculation of the total area under the first-moment curve using the Eq (2), where Ci is the plasma concentration measured at t1. AUMC0→t=∑i=1n((ti∙Ci+ti+1∙Ci+1)/2)∙(ti+1−ti). […]

[1] = hippocampus, 0.625 mg/kg, read-out: Concentration, hippocampus (individual animals)
[2] = hippocampus, 0.625 mg/kg, read-out: Concentration, hippocampus (Mean)
[3] = plasma, 0.625 mg/kg, read-out: Concentration, plasma (Mean)
[4] = plasma, 0.625 mg/kg, read-out: Concentration, plasma (individual animals)
[5] = striatum, 0.625 mg/kg, read-out: Concentration, striatum (Mean)
[6] = striatum, 0.625 mg/kg, read-out: Concentration, striatum (individual animals)

## Cn1c(=O)c2c(nc3n(CCCCN4CCN(c5ccccc5F)CC4)ccn23)n(C)c1=O [AZ-853, 8-(4-(4-(2-fluorophenyl)piperazin-1-yl)butyl)-1,3-dimethyl-1H-imidazo[2,1-f]purine-2,4(3H,8H)-dione]
[1]
  concentration at 5 min: 205 ng/mL
  concentration at 15 min: 228 ng/mL
  concentration at 30 min: 125 ng/mL
  concentration at 60 min: 38.9 ng/mL
  concentration at 120 min: 14.1 ng/mL
  concentration at 240 min: 9.85 ng/mL
[2]
  concentration at 15 min: 271 ng/mL
  concentration at 30 min: 125 ng/mL
  concentration at 60 min: 44.3 ng/mL
  concentration at 120 min: 12.6 ng/mL
  concentration at 240 min: 8.83 ng/mL
  concentration at 480 min: 2.07 ng/mL
hippocampus, 0.625 mg/kg, read-out: Cmax, hippocampus
  Cmax: 272 ng/g
hippocampus, 0.625 mg/kg, read-out: tmax, hippocampus (converted)
  Tmax: 15 min
plasma
  CL/F: 570 mL/min/kg
plasma, read-out: AUC0→t, plasma (converted)
  AUC(0-t): 17.7 ng·h/mL
plasma, read-out: MRT, plasma (converted)
  MRT: 85.8 min
[3]
  concentration at 5 min: 23.1 ng/mL
  concentration at 15 min: 13.4 ng/mL
  concentration at 30 min: 7.76 ng/mL
  concentration at 60 min: 1.78 ng/mL
  concentration at 120 min: 4.08 ng/mL
  concentration at 240 min: 0.38 ng/mL
  concentration at 480 min: 0.29 ng/mL
[4]
  concentration at 5 min: 25.4 ng/mL
  concentration at 15 min: 12.2 ng/mL
  concentration at 30 min: 9.11 ng/mL
  concentration at 120 min: 3.22 ng/mL
  concentration at 480 min: 0.25 ng/mL
plasma, 0.625 mg/kg, plasma, read-out: Vd/F
  Vd/F: > 67 L/kg
plasma, 0.625 mg/kg, read-out: Cmax, plasma
  Cmax: 23.1 ± 16 ng/mL
plasma, 0.625 mg/kg, read-out: tmax, plasma
  Tmax: ≤ 5 min
striatum, ratio of AUC values, read-out: Brain structure-to-plasma concentration ratio, striatum (S/P)
  Kp: 19.9
striatum, read-out: AUC0→t, striatum (converted)
  AUC(0-t): 352 ng·h/mL
striatum, read-out: MRT, striatum (converted)
  MRT: 56.3 min
[5]
  concentration at 5 min: 337 ng/mL
  concentration at 15 min: 404 ng/mL
  concentration at 30 min: 262 ng/mL
  concentration at 60 min: 65.5 ng/mL
  concentration at 120 min: 40.9 ng/mL
  concentration at 240 min: 5.58 ng/mL
  concentration at 480 min: 1.4 ng/mL
[6]
  concentration at 5 min: 290 ng/mL
  concentration at 15 min: 398 ng/mL
  concentration at 30 min: 307 ng/mL
  concentration at 60 min: 78.3 ng/mL
  concentration at 120 min: 48.7 ng/mL
striatum, 0.625 mg/kg, read-out: Cmax, striatum
  Cmax: 404 ng/g
striatum, 0.625 mg/kg, read-out: tmax, striatum (converted)
  Tmax: 15 min
